Experimental findings from ChEMBL document CHEMBL1641539 (Bioorg Med Chem Lett, 2011) are described below.

The target of series [1] is Mitogen-activated protein kinase 10 (Homo sapiens, UniProt P53779). Description: Inhibition of recombinant JNK3 after 60 mins by TR-FRET assay.
The target of series [2] is Mitogen-activated protein kinase 9 (Homo sapiens, UniProt P45984). Description: Inhibition of recombinant JNK2 after 60 mins by TR-FRET assay.
The target in series [3] is Mitogen-activated protein kinase 8 (Homo sapiens, UniProt P45983). Description: Inhibition of recombinant JNK1 after 60 mins by TR-FRET assay.
Chain of Mitogen-activated protein kinase 8 (P45983 whole entry): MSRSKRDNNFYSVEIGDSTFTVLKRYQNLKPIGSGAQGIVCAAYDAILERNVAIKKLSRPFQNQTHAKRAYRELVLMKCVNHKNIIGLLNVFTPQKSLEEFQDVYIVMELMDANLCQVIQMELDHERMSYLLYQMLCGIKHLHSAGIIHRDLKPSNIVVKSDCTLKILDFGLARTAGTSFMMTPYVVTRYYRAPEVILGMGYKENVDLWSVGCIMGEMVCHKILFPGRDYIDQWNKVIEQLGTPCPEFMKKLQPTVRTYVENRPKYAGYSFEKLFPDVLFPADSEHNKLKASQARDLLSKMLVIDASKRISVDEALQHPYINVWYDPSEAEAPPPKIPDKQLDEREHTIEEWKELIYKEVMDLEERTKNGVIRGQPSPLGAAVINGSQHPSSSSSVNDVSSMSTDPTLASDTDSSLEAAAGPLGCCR
The target in series [4] is Mitogen-activated protein kinase 1 (Homo sapiens, UniProt P28482). Description: Inhibition of recombinant ERK2 after 60 mins by TR-FRET assay.
Chain of Mitogen-activated protein kinase 1 (P28482 whole entry): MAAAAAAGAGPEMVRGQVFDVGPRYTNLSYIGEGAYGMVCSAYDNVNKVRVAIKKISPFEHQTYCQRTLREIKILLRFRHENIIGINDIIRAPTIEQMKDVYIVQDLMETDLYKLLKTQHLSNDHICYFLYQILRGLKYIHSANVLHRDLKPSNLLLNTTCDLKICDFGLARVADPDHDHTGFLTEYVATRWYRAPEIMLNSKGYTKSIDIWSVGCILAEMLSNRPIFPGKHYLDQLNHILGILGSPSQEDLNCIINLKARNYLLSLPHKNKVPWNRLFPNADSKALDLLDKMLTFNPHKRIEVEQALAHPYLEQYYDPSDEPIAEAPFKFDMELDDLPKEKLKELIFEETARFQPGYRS
For series [5], the target named is Mitogen-activated protein kinase 14 (Homo sapiens, UniProt Q16539). Description: Inhibition of recombinant p38alpha after 60 mins by TR-FRET assay.
Chain of Mitogen-activated protein kinase 14 (Q16539 whole entry): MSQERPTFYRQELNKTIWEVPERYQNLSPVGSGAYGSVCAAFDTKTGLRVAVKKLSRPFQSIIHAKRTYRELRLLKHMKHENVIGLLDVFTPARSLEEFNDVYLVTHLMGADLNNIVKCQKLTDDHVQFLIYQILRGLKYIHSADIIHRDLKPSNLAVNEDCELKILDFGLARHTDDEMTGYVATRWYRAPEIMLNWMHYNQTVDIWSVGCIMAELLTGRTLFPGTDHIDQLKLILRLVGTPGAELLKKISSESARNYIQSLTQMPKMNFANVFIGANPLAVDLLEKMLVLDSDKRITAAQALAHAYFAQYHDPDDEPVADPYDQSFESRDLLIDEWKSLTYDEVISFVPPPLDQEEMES
A short description of series [6]: Apparent permeability of the compound from apical to basolateral direction in MDCK2 cells at 5 uM after 120 mins. It counts as ADME, cell-based, Canis lupus familiaris, MDCK-II. Conditions: dog, MDCK.
Series [7] is described as follows: Efflux ratio, ratio of permeability from apical to basolateral in MDCK2 cells over expressing MDR1 in presence of P-gp inhibitor to permeability from apical to basolateral in MDCK2 cells over expressing MDR1 in absence of P-gp inhibitor at 5 uM after 120 mins. It is filed as ADME, cell-based, Canis lupus familiaris. Conditions: dog, mdck-ii, 2 h.
Series [8] can be described thus: Oxidative metabolic stability in mouse liver microsomes assessed as compound remaining at 2 uM after 30 mins. It counts as ADME, Microsome. The conditions noted are these: read-out: Stability.
Series [9] in a line: Oxidative metabolic stability in human liver microsomes assessed as compound remaining at 2 uM after 30 mins. It counts as ADME, Microsome. The conditions noted are these: read-out: Stability.

A value given as a limit tells only on which side of the number the result lay.

Chain of Mitogen-activated protein kinase 10 (P53779 whole entry): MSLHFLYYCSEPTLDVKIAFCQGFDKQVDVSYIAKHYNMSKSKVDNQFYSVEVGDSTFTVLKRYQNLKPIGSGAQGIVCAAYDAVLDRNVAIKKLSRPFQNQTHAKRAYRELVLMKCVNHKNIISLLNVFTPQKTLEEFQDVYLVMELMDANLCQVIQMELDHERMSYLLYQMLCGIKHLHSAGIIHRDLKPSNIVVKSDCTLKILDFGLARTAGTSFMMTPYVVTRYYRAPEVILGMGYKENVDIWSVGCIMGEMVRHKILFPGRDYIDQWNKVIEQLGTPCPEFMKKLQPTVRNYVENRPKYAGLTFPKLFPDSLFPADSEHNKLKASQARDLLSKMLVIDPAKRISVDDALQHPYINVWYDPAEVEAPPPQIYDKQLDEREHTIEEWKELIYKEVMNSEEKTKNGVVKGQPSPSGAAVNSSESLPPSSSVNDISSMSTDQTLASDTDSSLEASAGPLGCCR
Chain of Mitogen-activated protein kinase 9 (P45984 whole entry): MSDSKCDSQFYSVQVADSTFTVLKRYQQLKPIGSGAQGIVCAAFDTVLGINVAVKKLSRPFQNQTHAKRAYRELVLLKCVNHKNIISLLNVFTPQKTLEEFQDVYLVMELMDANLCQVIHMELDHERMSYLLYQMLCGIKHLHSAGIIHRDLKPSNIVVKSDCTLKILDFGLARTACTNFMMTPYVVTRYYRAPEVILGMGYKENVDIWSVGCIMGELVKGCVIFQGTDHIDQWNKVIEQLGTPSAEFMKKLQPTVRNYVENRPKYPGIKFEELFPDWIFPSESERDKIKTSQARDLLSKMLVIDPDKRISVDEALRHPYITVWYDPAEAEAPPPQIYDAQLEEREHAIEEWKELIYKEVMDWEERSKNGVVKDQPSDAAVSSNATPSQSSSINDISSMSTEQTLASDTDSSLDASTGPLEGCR

For the compound `O=c1[nH]nc(-c2ccnc(NC3CCCC3)c2)n1-c1ccc2ccccc2c1`, the IC50 in series [1] is 130 nM; in series [2], 350 nM; in series [3], more than 50000 nM; in series [4], more than 50000 nM; in [5] it was more than 50000 nM.

For `Nc1cccc2ccc(-n3c(-c4ccnc(NC5CCOCC5)c4)n[nH]c3=O)cc12`, the half-maximal inhibitory concentration (IC50) is 94 nM in [1]; 570 nM in [2]; 2600 nM in series [3]; more than 50000 nM in [4]; more than 50000 nM in [5].

Regarding `Nc1ccc2cc(-n3c(-c4ccnc(NC5CCOCC5)c4)n[nH]c3=O)ccc2c1`, the IC50 in series [1] is 950 nM; in [2] it was 5300 nM; in series [3] it was 1700 nM; in series [4], more than 50000 nM; in series [5], more than 50000 nM.

For `O=c1[nH]nc(-c2ccnc(Nc3ccccn3)c2)n1-c1ccc2ccccc2c1`, the IC50 in [1] was 40 nM; in series [2] it was 110 nM; in [3], 2200 nM; in series [4], more than 50000 nM; in [5], more than 50000 nM.

For the compound `O=c1[nH]nc(-c2ccnc(NC3CCOCC3)c2)n1-c1ccc2cc(Br)ccc2c1`, the IC50 in series [1] is 430 nM; in series [2] it was 780 nM; in series [3] it was 4200 nM; in series [4] it was more than 50000 nM; in series [5], more than 50000 nM.

As for `COC(=O)N1CCC(n2nc(-c3ccnc(NC4CCOCC4)c3)n(-c3ccc4ccccc4c3)c2=O)CC1`, the IC50 in series [1] was 24 nM; in series [2] it was 58 nM; in series [3], 360 nM; in [4], more than 5000 nM; in series [5], more than 50000 nM.

On to `O=c1[nH]nc(-c2ccnc(NC3CC3)c2)n1-c1ccc2ccccc2c1`, for which the IC50 in series [1] is 130 nM; in [2], 390 nM; in series [3] it was 3900 nM; in series [4] it was more than 50000 nM; in series [5] it was more than 50000 nM.

On to `O=c1n(CC2CCOCC2)nc(-c2ccnc(NC3CCCCC3)c2)n1-c1ccc2ccccc2c1`, for which the IC50 was 22 nM in [1]; 61 nM in series [2]; 420 nM in series [3]; more than 50000 nM in series [4]; more than 50000 nM in [5].

On to `O=c1[nH]nc(-c2ccnc(NC3CCC3)c2)n1-c1ccc2ccccc2c1`, for which the IC50 in series [1] was 70 nM; in [2] it was 220 nM; in series [3], 1800 nM; in series [4], more than 50000 nM; in [5], more than 50000 nM.

As to `O=c1[nH]nc(-c2ccnc(Nc3ccccc3)c2)n1-c1ccc2ccccc2c1`, the IC50 was 61 nM in [1]; 470 nM in series [2]; 5700 nM in series [3]; more than 50000 nM in [4]; more than 50000 nM in [5].

As for `O=c1[nH]nc(-c2ccnc(NC3CCOCC3)c2)n1-c1ccc2cccc(Cl)c2c1`, the IC50 is 14 nM in [1], 150 nM in [2] and 110 nM in [3].

As for `O=c1[nH]nc(-c2ccnc(Nc3nccs3)c2)n1-c1ccc2ccccc2c1`, the half-inhibitory concentration (IC50) was 210 nM in series [1]; 650 nM in [2]; more than 50000 nM in [3]; more than 50000 nM in series [4]; more than 50000 nM in [5].

In the case of `O=C(Nc1cc(-c2n[nH]c(=O)n2-c2ccc3ccccc3c2)ccn1)c1ccccc1`, the IC50 was 590 nM in series [1]; 4400 nM in series [2]; more than 50000 nM in series [3]; more than 50000 nM in series [4]; more than 50000 nM in series [5].

On to `O=c1n(C2CCOC2)nc(-c2ccnc(NC3CCOCC3)c2)n1-c1ccc2ccccc2c1` (stereo not given), for which the half-maximal inhibitory concentration (IC50) in [1] was 92 nM; in series [2], 320 nM; in series [3], 3800 nM; in series [4], more than 50000 nM; in series [5] it was more than 50000 nM. Besides, in series [6], the Papp A→B at 2 h, 5 µM is 21.8 ×10⁻⁶ cm/s. In addition, in series [7], the Ratio is listed as 1.6. Also, the remaining at 0.5 h, 2 µM in series [8] worked out at 1.6%; in [9], 27%.

Regarding `O=c1[nH]nc(-c2ccnc(NC3CCOCC3)c2)n1-c1ccc2cccc(F)c2c1`, the IC50 is 54 nM in series [1]; 380 nM in series [2]; more than 500 nM in [3]; more than 50000 nM in [4]; more than 50000 nM in series [5].

Turning to `O=c1[nH]nc(-c2ccncc2)n1-c1ccc2ccccc2c1`, the concentration for half-maximal inhibition (IC50) is 16000 nM in [1]; 32000 nM in series [2]; more than 50000 nM in [3]; more than 50000 nM in series [4]; more than 50000 nM in [5].

As to `C[C@H](Nc1cc(-c2n[nH]c(=O)n2-c2ccc3ccccc3c2)ccn1)c1ccccc1`, the IC50 in series [1] is 3900 nM; in series [2], more than 5000 nM; in series [3], more than 5000 nM; in series [4], more than 5000 nM; in series [5], more than 5000 nM.

For `O=c1n(C2CCNCC2)nc(-c2ccnc(NC3CCOCC3)c2)n1-c1ccc2ccccc2c1`, the IC50 in series [1] was 160 nM; in series [2] it was 530 nM; in [3], 4500 nM; in [4], more than 5000 nM; in series [5], more than 50000 nM.

For the compound `O=C(Nc1cc(-c2n[nH]c(=O)n2-c2ccc3ccccc3c2)ccn1)C1CC1`, the half-inhibitory concentration (IC50) was 120 nM in [1]; 440 nM in [2]; 4600 nM in series [3]; more than 50000 nM in series [4]; more than 50000 nM in series [5].

In the case of `CCN1CCC(n2nc(-c3ccnc(NC4CCOCC4)c3)n(-c3ccc4ccccc4c3)c2=O)CC1`, the IC50 in series [1] was 280 nM; in series [2], 2000 nM; in series [3], more than 5000 nM.

For `CC(=O)Nc1cc(-c2n[nH]c(=O)n2-c2ccc3ccccc3c2)ccn1`, the IC50 is 410 nM in [1]; 1500 nM in series [2]; 7200 nM in [3]; more than 50000 nM in [4]; more than 50000 nM in series [5].

`O=c1[nH]nc(-c2ccnc(NC3CCOCC3)c2)n1-c1ccc2cc(F)ccc2c1`: the IC50 in series [1] is 70 nM; in series [2], 190 nM; in series [3], 740 nM; in [4] it was more than 50000 nM; in series [5], more than 50000 nM. The apparent permeability from apical to basolateral (Papp A→B) at 2 h, 5 µM in [6] was determined as 7.3 ×10⁻⁶ cm/s. The values for the remaining at 0.5 h, 2 µM in series [8] and in series [9] were 100% and 88%, respectively.

Take `O=c1[nH]nc(-c2ccnc(Nc3cccnc3)c2)n1-c1ccc2ccccc2c1`: the IC50 in [1] was 250 nM; in series [2], 950 nM; in series [3], 3300 nM; in series [4], 14000 nM; in series [5] it was more than 50000 nM.

Take `O=c1n(C2CCN(CC(F)(F)F)CC2)nc(-c2ccnc(NC3CCOCC3)c2)n1-c1ccc2ccccc2c1`: the IC50 in series [1] was found to be 36 nM; in series [2], 170 nM; in series [3] it was 900 nM.

`O=c1n(-c2ccccn2)nc(-c2ccnc(NC3CCOCC3)c2)n1-c1ccc2ccccc2c1`: the IC50 is 100 nM in [1]; 150 nM in series [2]; 1400 nM in series [3]; more than 50000 nM in [4]; more than 50000 nM in series [5]. Further, in series [6], the Papp A→B at 2 h, 5 µM turned out to be 5.1 ×10⁻⁶ cm/s. Besides, in [7], the Ratio is reported as 1.5. In addition, the remaining at 0.5 h, 2 µM in [8] is 1.5%; in series [9], 59%.
